Tests used:
TAO2 = target: T1, TAO2 (Homo sapiens, UniProt Q9UL54); test: Probe-based (AX9989) kinase profiling in Jurkat lysate: TAO2; type: binding; conditions: read-out: TAO2 Inhibition % at indicated screening concentration; for inhibition at 1 µM: screening concentration 1 μM; for inhibition at 10 µM: screening concentration 10 μM
T1 construct: screened for activity against several kinases in Jurkat cells; endogenous in cells; host or cells: Jurkat cell lysate
T1 sequence (Q9UL54 1-1235): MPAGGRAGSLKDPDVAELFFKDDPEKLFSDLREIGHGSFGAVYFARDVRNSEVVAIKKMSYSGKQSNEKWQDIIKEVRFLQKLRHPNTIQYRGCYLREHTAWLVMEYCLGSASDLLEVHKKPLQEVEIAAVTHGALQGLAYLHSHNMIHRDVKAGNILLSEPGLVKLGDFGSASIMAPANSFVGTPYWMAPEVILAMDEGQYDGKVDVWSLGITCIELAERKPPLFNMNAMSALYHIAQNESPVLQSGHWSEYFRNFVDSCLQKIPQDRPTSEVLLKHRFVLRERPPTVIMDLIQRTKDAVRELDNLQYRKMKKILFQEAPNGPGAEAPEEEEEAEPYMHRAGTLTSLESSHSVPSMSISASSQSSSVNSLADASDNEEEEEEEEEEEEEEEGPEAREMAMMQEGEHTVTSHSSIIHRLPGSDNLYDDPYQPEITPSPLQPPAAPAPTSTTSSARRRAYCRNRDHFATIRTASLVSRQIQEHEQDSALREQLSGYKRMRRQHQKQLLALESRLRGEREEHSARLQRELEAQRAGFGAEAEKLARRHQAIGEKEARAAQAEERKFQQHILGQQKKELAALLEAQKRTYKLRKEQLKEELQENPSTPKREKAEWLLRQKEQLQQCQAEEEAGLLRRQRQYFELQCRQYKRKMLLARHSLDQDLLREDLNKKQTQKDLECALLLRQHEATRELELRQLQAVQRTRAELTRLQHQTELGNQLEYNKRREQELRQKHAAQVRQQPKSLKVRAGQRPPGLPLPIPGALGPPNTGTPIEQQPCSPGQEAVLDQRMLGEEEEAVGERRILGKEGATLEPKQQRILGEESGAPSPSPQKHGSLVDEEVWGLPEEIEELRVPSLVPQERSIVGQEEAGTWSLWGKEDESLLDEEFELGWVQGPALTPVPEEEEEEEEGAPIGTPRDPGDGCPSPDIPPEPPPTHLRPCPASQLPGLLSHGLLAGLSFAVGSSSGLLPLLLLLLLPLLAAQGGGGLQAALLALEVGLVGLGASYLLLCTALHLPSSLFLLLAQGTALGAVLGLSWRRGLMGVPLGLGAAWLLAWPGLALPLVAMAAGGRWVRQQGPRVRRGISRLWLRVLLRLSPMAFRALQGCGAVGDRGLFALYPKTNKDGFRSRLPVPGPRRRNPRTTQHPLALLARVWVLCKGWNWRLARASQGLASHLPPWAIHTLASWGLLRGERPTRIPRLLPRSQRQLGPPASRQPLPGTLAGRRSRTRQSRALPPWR
Method in brief: (§1)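 Gel-filtered Jurkat lysate (HEPES pH 7.5, 20 mM MnCl2, 5 mg/ml) was pre-incubated 15 min with compound at room temperature, then labelled with 5 μM acyl-phosphate ATP probe AX9989. Tryptic probe-labelled active-site peptides were streptavidin-captured and quantified by LC/MS. Percent inhibition reflected the decrease in labelled-peptide intensity versus no compound.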

[1] = target: T2, recombinant human ERK5 catalytic domain (Homo sapiens, UniProt Q13164); test: Recombinant human ERK5 radiometric (HotSpot) assay; type: biochemical; conditions: 10 μM ATP, 20 μM myelin basic protein substrate; read-out: rhERK5 IC50
T2 construct: Recombinant human ERK5 catalytic domain radiometric assays; purchased Reaction Biology, Corp (Malvern, Pa.), which ran the assay as a service
Protocol: In this example, potency of the compounds in recombinant human ERK5 was assayed.
Recombinant human ERK5 catalytic domain radiometric assays were performed by Reaction Biology, Corp (Malvern, Pa.). The HotSpot radiometric assay is based on conventional filter-binding assays (Nature Biotechnology (2011) 29: 1039-1045). Compounds were tested at 20 μM down by ⅓ in a 10 point serial dilution series. Briefly, [γ-33P]-ATP was used as the tracer along with 10 μM cold ATP to label ERK5 in the presence of 20 μM myelin basic protein substrate.

AurB or AurC = test: Probe-based (AX9989) kinase profiling in Jurkat lysate: AurB or AurC; type: binding
Method in brief: as §1

AurA = target: T3, AurA (Homo sapiens, UniProt O14965); test: Probe-based (AX9989) kinase profiling in Jurkat lysate: AurA; type: binding; conditions: read-out: AurA Inhibition % at indicated screening concentration; for inhibition at 1 µM: screening concentration 1 μM; for inhibition at 10 µM: screening concentration 10 μM
T3 construct: screened for activity against several kinases in Jurkat cells; endogenous in cells; host or cells: Jurkat cell lysate
T3 sequence (O14965 1-403): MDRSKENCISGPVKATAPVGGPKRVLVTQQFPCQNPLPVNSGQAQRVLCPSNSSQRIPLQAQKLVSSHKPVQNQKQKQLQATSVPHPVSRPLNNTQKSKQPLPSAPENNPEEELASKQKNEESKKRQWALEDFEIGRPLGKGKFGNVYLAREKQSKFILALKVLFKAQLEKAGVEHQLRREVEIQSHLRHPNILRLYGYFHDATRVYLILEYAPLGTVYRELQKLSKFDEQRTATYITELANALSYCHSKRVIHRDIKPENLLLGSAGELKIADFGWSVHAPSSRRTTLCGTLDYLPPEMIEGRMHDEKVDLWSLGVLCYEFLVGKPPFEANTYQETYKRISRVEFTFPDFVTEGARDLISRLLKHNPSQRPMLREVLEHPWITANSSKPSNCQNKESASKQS
Method in brief: as §1

T2 sequence (Q13164 55-347 limits assumed): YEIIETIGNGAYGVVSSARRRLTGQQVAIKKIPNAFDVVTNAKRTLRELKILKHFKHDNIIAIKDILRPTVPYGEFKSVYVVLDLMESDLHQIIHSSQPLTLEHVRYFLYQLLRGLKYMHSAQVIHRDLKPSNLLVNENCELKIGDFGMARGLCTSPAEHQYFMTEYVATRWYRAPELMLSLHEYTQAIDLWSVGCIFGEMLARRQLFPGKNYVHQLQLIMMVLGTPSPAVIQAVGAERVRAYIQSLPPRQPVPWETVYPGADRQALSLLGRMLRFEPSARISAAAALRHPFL

Row | SMILES | inhibition at 1 µM (TAO2) [%] | IC50 [1] [nM] | AurB or AurC Inhibition % at indicated screening concentration (AurB or AurC; screening concentration 1 μM) | inhibition at 1 µM (AurA) [%] | inhibition at 10 µM (TAO2) [%] | AurB or AurC Inhibition % at indicated screening concentration (AurB or AurC; screening concentration 10 μM) | inhibition at 10 µM (AurA) [%]
1 | CCOc1cc(C(=O)N2CCN(C3CCN(C)CC3)CC2)ccc1Nc1cc2c(cn1)N(C)C(=O)c1ccccc1N2C [Compound T8] | ≤ 35 | < 20 | E (E is ≦35%) | ≤ 35 |  |  | 
2 | CCOc1cc(C(=O)N2CCC(N3CC[C@@H](O)C3)CC2)ccc1Nc1cc2c(cn1)N(C)C(=O)c1ccccc1N2C [Compound T10] | ≤ 35 | 20 to 50 | E (E is ≦35%) | ≤ 35 |  |  | 
3 | CCOc1cc(C(=O)N2CCN(C(C)=O)CC2)ccc1Nc1cc2c(cn1)N(C)C(=O)c1ccccc1N2C [Compound T18] | ≤ 35 | 20 to 50 | E (E is ≦35%) | ≤ 35 |  |  | 
4 | CCOc1cc(C(=O)N2CC[C@@H](N3CCN(C)CC3)C2)ccc1Nc1cc2c(cn1)N(C)C(=O)c1ccccc1N2C [Compound T20] | ≤ 35 | 20 to 50 | E (E is ≦35%) | ≤ 35 |  |  | 
5 | CN1CCN(C2CCN(C(=O)c3ccc(Nc4cc5c(cn4)N(C)C(=O)c4ccccc4N5C)c(OCCF)c3)CC2)CC1 [Compound T34] | ≤ 35 | < 20 | E (E is ≦35%) | ≤ 35 |  |  | 
6 | CCOc1cc(C(=O)N2CCC(NC3CCN(C)CC3)C2)ccc1Nc1cc2c(cn1)N(C)C(=O)c1ccccc1N2C (stereo not drawn) [Compound T42] | ≤ 35 | 50 to 200 | E (E is ≦35%) | ≤ 35 |  |  | 
7 | CCOc1cc(C(=O)N2CCC(N3CCN(C)CC3)CC2)ccc1Nc1cc2c(cn1)N(C)C(C(F)(F)F)c1ccccc1N2C (stereo not drawn) [Compound T47] |  | > 200 |  |  | ≤ 35 | E (E is ≦35%) | ≤ 35
8 | CCOc1cc(C(=O)N2CCN(c3cccnc3)CC2)ccc1Nc1cc2c(cn1)N(C)C(=O)c1occc1N2C [Compound T56] | ≤ 35 | < 20 | E (E is ≦35%) | ≤ 35 |  |  | 
9 | CCOc1cc(C(=O)N[C@H]2CC[C@H](O)CC2)ccc1Nc1cc2c(cn1)N(C)C(=O)c1ccccc1N2C [Compound T62] | ≤ 35 | > 200 | E (E is ≦35%) | ≤ 35 |  |  | 
10 | CCOc1cc(C(=O)N2CCN(C3CCN(C)CC3)CC2)ccc1Nc1cc2c(cn1)N(C)C(=O)c1ccccc1O2 [Compound T98] |  | 20 to 50 |  |  | ≤ 35 | E (E is ≦35%) | ≤ 35

More lines, now with the values ahead:

Row | inhibition at 1 µM (TAO2) [%] | IC50 [1] [nM] | AurB or AurC Inhibition % at indicated screening concentration (AurB or AurC; screening concentration 1 μM) | inhibition at 1 µM (AurA) [%] | inhibition at 10 µM (TAO2) [%] | AurB or AurC Inhibition % at indicated screening concentration (AurB or AurC; screening concentration 10 μM) | inhibition at 10 µM (AurA) [%] | SMILES
11 | ≤ 35 | 20 to 50 | E (E is ≦35%) | ≤ 35 |  |  |  | CCOc1cc(C(=O)N2CC[C@@H](NCCF)C2)ccc1Nc1cc2c(cn1)N(C)C(=O)c1ccccc1N2C [Compound T9]
12 | ≤ 35 | 20 to 50 | E (E is ≦35%) | ≤ 35 |  |  |  | CCOc1cc(C(=O)N2CCC(N3CC[C@H](O)C3)CC2)ccc1Nc1cc2c(cn1)N(C)C(=O)c1ccccc1N2C [Compound T11]
13 | ≤ 35 | 20 to 50 | E (E is ≦35%) | ≤ 35 |  |  |  | CCOc1cc(C(=O)N2CCN(CCN(C)C)CC2)ccc1Nc1cc2c(cn1)N(C)C(=O)c1ccccc1N2C [Compound T14]
14 | ≤ 35 | 20 to 50 | E (E is ≦35%) | ≤ 35 |  |  |  | CCOc1cc(C(=O)N2CCN(CCN3CCOCC3)CC2)ccc1Nc1cc2c(cn1)N(C)C(=O)c1ccccc1N2C [Compound T15]
15 | ≤ 35 | 50 to 200 | E (E is ≦35%) | ≤ 35 |  |  |  | CCOc1cc(C(=O)N2CC[C@H](C#N)C2)ccc1Nc1cc2c(cn1)N(C)C(=O)c1ccccc1N2C [Compound T22]
16 | ≤ 35 | < 20 | E (E is ≦35%) | ≤ 35 |  |  |  | CCOc1cc(C(=O)N2CCC(N3CCCN(C)CC3)CC2)ccc1Nc1cc2c(cn1)N(C)C(=O)c1ccccc1N2C [Compound T31]
17 |  | 50 to 200 |  |  | ≤ 35 | E (E is ≦35%) | ≤ 35 | CC(C)Oc1cc(C(=O)N2CCC[C@H](O)C2)ccc1Nc1cc2c(cn1)N(C)C(=O)c1ccccc1N2C [Compound T48]
18 | ≤ 35 | 50 to 200 | E (E is ≦35%) | ≤ 35 |  |  |  | CC(C)Oc1cc(C(=O)N2CCN(C3CCN(C)CC3)CC2)ccc1Nc1cc2c(cn1)N(C)C(=O)c1ccccc1N2C [Compound T49]
19 | ≤ 35 | 50 to 200 | E (E is ≦35%) | ≤ 35 |  |  |  | CC(C)Oc1cc(C(=O)N2CC[C@@H](NCCF)C2)ccc1Nc1cc2c(cn1)N(C)C(=O)c1ccccc1N2C [Compound T50]
20 |  | > 200 |  |  | ≤ 35 | E (E is ≦35%) | ≤ 35 | CCOc1cc(C(=O)N2CCC(NCCF)C2)ccc1Nc1cc2c(cn1)N(C)C(C(F)(F)F)c1ccccc1N2C (stereo not drawn) [Compound T54]
21 | ≤ 35 | > 200 | E (E is ≦35%) | ≤ 35 |  |  |  | CCOc1cc(C(=O)N[C@H]2CC[C@@H](O)CC2)ccc1Nc1cc2c(cn1)N(C)C(=O)c1ccccc1N2C [Compound T63]
22 |  | 50 to 200 |  |  | 50 to 75 | D (D is >35% to ≦50%) | ≤ 35 | CN1C(=O)c2c(F)cccc2Oc2cc(N[C@H]3CC[C@H](O)CC3)ncc21 [Compound T92]
23 |  | > 200 |  |  | 50 to 75 | E (E is ≦35%) | ≤ 35 | COc1cccc2c1Oc1cc(N[C@H]3CC[C@H](O)CC3)ncc1N(C)C2=O [Compound T95]
24 |  | > 200 |  |  | 50 to 75 | E (E is ≦35%) | ≤ 35 | CN1C(=O)c2c(F)ccc(F)c2Oc2cc(N[C@H]3CC[C@H](O)CC3)ncc21 [Compound T97]

— patent US20170008888A1 (KYORIN PHARMACEUTICAL CO., LTD., priority 2014, published 2017)
